Measured values taken from patent publication US10308660B2, “Compounds and compositions for inhibiting the activity of SHP2” (Novartis AG, priority 2015, dated 2019).

Target: SHP2 (Homo sapiens (Human), UniProt Q06124)
Test: SHP2 allosteric inhibition assay (DiFMUP prompt fluorescence)
Assay type: biochemical
Settings: 0.5 nM SHP2 activated with 0.5 μM peptide IRS1_pY1172(dPEG8)pY1222; substrate DiFMUP; 25° C.

SHP2, sequence (Q06124 whole entry): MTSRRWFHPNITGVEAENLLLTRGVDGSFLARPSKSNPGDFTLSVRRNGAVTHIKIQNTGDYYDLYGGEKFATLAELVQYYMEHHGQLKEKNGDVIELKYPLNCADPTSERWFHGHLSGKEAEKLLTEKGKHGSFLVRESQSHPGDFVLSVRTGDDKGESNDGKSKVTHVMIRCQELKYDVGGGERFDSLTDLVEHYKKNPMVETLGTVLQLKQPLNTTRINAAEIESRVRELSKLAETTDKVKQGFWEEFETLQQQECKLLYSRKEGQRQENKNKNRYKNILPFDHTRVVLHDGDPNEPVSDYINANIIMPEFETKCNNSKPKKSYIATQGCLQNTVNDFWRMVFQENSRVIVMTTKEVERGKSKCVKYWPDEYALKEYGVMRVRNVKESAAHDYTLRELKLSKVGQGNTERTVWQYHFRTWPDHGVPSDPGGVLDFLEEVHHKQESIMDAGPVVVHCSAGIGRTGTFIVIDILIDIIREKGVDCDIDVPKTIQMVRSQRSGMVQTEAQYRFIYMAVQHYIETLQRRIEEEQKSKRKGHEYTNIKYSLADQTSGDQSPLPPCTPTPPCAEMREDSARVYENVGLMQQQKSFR

| Structure (SMILES) | IC50 [nM] |
| --- | --- |
| Cn1c(N2CCC(C)(CN)CC2)nc(N)c(Sc2ccccc2C#N)c1=O [Example 51] | 391 |
| Cn1c(N2CCC(C)(CN)CC2)nc(N)c(Sc2ccnc(N)c2Cl)c1=O [Example 4] | 53 |
| Cn1c(N2CCC3(CC2)C[C@H](C(F)(F)F)C[C@H]3N)nc(N)c(Sc2cccnc2C(F)(F)F)c1=O [Example 83] | 56 |
| C[C@@H]1CC2(CCN(c3nc(N)c(Sc4ccnc(N)c4Cl)c(=O)n3C)CC2)[C@H](N)C1(F)F [Example 34] | 57 |
| Cn1c(N2CCC(C)(CN)CC2)nc(N)c(Sc2cccc(C#N)c2)c1=O [Example 10] | 5630 |
| COc1cccc(Sc2c(N)nc(N3CCC4(CC3)CO[C@@H](C)[C@H]4N)n(C)c2=O)c1Cl [Example 20] | 17 |
| Cn1c(N2CCC3(CC2)CC(F)(F)C[C@H]3N)nc(N)c(Sc2ccc(F)cc2Cl)c1=O [Example 82] | 25 |
| C[C@@H]1OCC2(CCN(c3nc(N)c(-c4ccc(Oc5ccccc5)cc4)c(=O)n3C)CC2)[C@@H]1N [Example 142] | 27 |
| C[C@@H]1OCC2(CCN(c3nc(N)c(-c4cc(Cl)cc(Cl)c4)c(=O)n3C)CC2)[C@@H]1N [Example 179] | 421 |
| Cn1c(N2CCC3(CCC[C@H]3N)CC2)nc(N)c(-c2cccc(Cl)c2Cl)c1=O [Example 192] | 21 |
| C[C@@H]1CC2(CCN(c3nc(N)c(-c4ccccc4)c(=O)n3C)CC2)[C@H](N)[C@H]1F [Example 188] | 15 |
| C[C@H]1CC2(CCN(c3nc(N)c(Sc4cccnc4C(F)(F)F)c(=O)n3C)CC2)[C@H](N)[C@@H]1C(F)(F)F (single isomer, unassigned) [Example 65] | 61 |
| Cn1c(N2CCC3(CC2)CC(F)(F)C[C@H]3N)nc(N)c(-c2cccc(Cl)c2Cl)c1=O [Example 137] | 22 |
| Cc1ccc(-c2c(N)nc(N3CCC4(CC3)CO[C@@H](C)[C@H]4N)n(C)c2=O)cc1Cl [Example 123, 6-amino-2-((3S,4S)-4-amino-3-methyl-2-oxa-8-azaspiro[4.5]decan-8-yl)-5-(3-chloro-4-methylphenyl)-3-methylpyrimidin-4(3H)-one] | 14 |
| Cn1c(N2CCC(C)(CN)CC2)nc(N)c(Sc2ccccc2Br)c1=O [Example 45] | 137 |
| Cc1ccccc1Sc1c(N)nc(N2CCC(C)(CN)CC2)n(C)c1=O [Example 54] | 200 |
| Cn1c(N2CCC(C)(CN)CC2)ncc(Sc2ccccc2C(F)(F)F)c1=O [Example 108] | 500 |
| CC1(CN)CCN(c2nc(N)c(Sc3cccnc3C(F)(F)F)c(=O)[nH]2)CC1 [Example 90, 6-amino-2-(4-(aminomethyl)-4-methylpiperidin-1-yl)-5-((2-(trifluoromethyl)pyridin-3-yl)thio)pyrimidin-4(3H)-one] | 66 |
| Cn1c(N2CCC3(CC2)CC(F)(F)C[C@H]3N)nc(N)c(Sc2ccccc2Cl)c1=O [Example 85] | 77 |
| Cn1c(N2CCC3(CC2)COC[C@H]3N)nc(N)c(Sc2cccc(Cl)c2Cl)c1=O [Example 72] | 33 |
| C[C@H]1C[C@@H](N)C2(CCN(c3nc(N)c(Sc4ccncc4C(F)(F)F)c(=O)n3C)CC2)C1 [Example 75] | 18 |
| Cn1c(N2CCC(C)(CN)CC2)nc(N)c(Sc2cccc(OC(F)(F)F)c2)c1=O [Example 11] | 441 |
| C[C@H]1C[C@@H](N)C2(CCN(c3nc(N)c(Sc4ccncc4Cl)c(=O)n3C)CC2)C1 [Example 76] | 27 |
| C[C@@H]1OCC2(CCN(c3nc(N)c(-c4ccc(OC5CC5)cc4)c(=O)n3C)CC2)[C@@H]1N [Example 139] | 25 |
| C[C@@H]1OCC2(CCN(c3nc(N)c(-c4ccc(F)c(F)c4)c(=O)n3C)CC2)[C@@H]1N [Example 133] | 17 |

| Structure (SMILES) | IC50 [nM] |
| --- | --- |
| Cn1c(N2CCC(C)(CN)CC2)nc(N)c(Sc2ccccc2C(F)(F)F)c1=O [Example 49] | 74 |
| C[C@H]1C[C@@H](N)C2(CCN(c3nc(N)c(Sc4ccnc(N5CCCC5)c4Cl)c(=O)n3C)CC2)C1 [Example 62] | 25 |
| C[C@H]1C[C@@H](N)C2(CCN(c3nc(N)c(Sc4ccnc(N)c4Cl)c(=O)n3C)CC2)C1 [Example 21] | 28 |
| C[C@@H]1OCC2(CCN(c3nc(N)c(-c4ccc(Cl)c(F)c4)c(=O)n3C)CC2)[C@@H]1N [Example 141] | 26 |
| Cn1c(N2CCC(C)(CN)CC2)nc(N)c(Sc2cccc(N)c2Cl)c1=O [Example 8] | 232 |
| C[C@H]1C[C@@H](N)C2(CCN(c3nc(N)c(Sc4cc(N)ccc4Cl)c(=O)n3C)CC2)C1 [Example 69] | 10 |
| C[C@H]1C[C@@H](N)C2(CCN(c3nc(N)c(Sc4cccc(N)c4Cl)c(=O)n3C)CC2)C1 [Example 60] | 16 |
| C[C@@H]1OCC2(CCN(c3nc(N)c(-c4ccccc4F)c(=O)n3C)CC2)[C@@H]1N [Example 153] | 46 |
| Cc1ccccc1-c1c(N)nc(N2CCC3(CC2)CO[C@@H](C)[C@H]3N)n(C)c1=O [Example 176] | 271 |
| CC[C@@H]1OCC2(CCN(c3nc(N)c(Sc4cccnc4C(F)(F)F)c(=O)n3C)CC2)[C@@H]1N [Example 87] | 21 |
| C[C@H]1C[C@@H](N)C2(CCN(c3nc(N)c(Sc4cc(N)cnc4Cl)c(=O)n3C)CC2)C1 [Example 68] | 10 |
| C[C@@H]1OCC2(CCN(c3nc(N)c(-c4cc(Cl)ccc4Cl)c(=O)n3C)CC2)[C@@H]1N [Example 186] | 2230 |
| COc1ccc(-c2c(N)nc(N3CCC4(CC3)CO[C@@H](C)[C@H]4N)n(C)c2=O)cc1F [Example 157] | 52 |
| C[C@@H]1OCC2(CCN(c3ncc(-c4cccc(Cl)c4Cl)c(=O)[nH]3)CC2)[C@@H]1N [Example 201] | 3340 |
| C[C@H]1C[C@@H](N)C2(CCN(c3nc(N)c(-c4cccc(Cl)c4)c(=O)n3C)CC2)C1 [Example 125] | 12 |
| C[C@@H]1OCC2(CCN(c3nc(N)c(Sc4ccccc4)c(=O)n3C)CC2)[C@@H]1N [Example 26] | 82 |
| COc1nccc(Sc2c(N)nc(N3CCC4(CC3)CO[C@@H](C)[C@H]4N)n(C)c2=O)c1Cl [Example 23] | 23 |
| C[C@@H]1OCC2(CCN(c3nc(N)c(-c4ccc(F)cc4)c(=O)n3C)CC2)[C@@H]1N [Example 146] | 38 |
| C[C@@H]1OCC2(CCN(c3nc(N)c(-c4cncc(Cl)c4)c(=O)n3C)CC2)[C@@H]1N [Example 171] | 172 |
| C[C@@H]1OCC2(CCN(c3nc(N)c(-c4ccc(N(C)C)cc4)c(=O)n3C)CC2)[C@@H]1N [Example 166] | 88 |
| Cn1c(N2CCC3(CC[C@@H]3N)CC2)ncc(Sc2cccc(Cl)c2Cl)c1=O [Example 104] | 109 |
| Cn1c(N2CCC(C)(CN)CC2)nc(N)c(Sc2ccccc2O)c1=O [Example 52] | 721 |
| C[C@@H]1OCC2(CCN(c3nc(N)c(-c4ccc(OC(F)F)cc4)c(=O)n3C)CC2)[C@@H]1N [Example 145] | 34 |
| C[C@@H]1OCC2(CCN(c3nc(N)c(-c4cc(F)cc(F)c4)c(=O)n3C)CC2)[C@@H]1N [Example 164] | 75 |
| CC1(CN)CCN(c2ncc(Sc3ccccc3Cl)c(=O)[nH]2)CC1 [Example 94] | 178 |

| Structure (SMILES) | IC50 [nM] |
| --- | --- |
| C[C@@H]1OCC2(CCN(c3nc(N)c(-c4ccc(C5CC5)cc4)c(=O)n3C)CC2)[C@@H]1N [Example 160] | 63 |
| Cn1c(N2CCC3(CC2)CC(F)(F)C[C@H]3N)nc(N)c(Sc2ccnc(N)c2Cl)c1=O [Example 42] | 14 |
| Cn1c(N2CCC(C)(CN)CC2)nc(N)c(Sc2cccnc2C(F)(F)F)c1=O [Example 7] | 109 |
| Cn1c(N2CCC(C)(CN)CC2)nc(N)c(Sc2ccc(N)cc2Cl)c1=O [Example 53] | 609 |
| Cc1ccc(-c2c(N)nc(N3CCC4(CC3)C[C@@H](C)C[C@H]4N)n(C)c2=O)cc1Cl [Example 124] | 10 |
| Cn1c(N2CCC(C)(CN)CC2)nc(N)c(-c2cccc(Cl)c2Cl)c1=O [Example 193] | 40 |
| C[C@@H]1OCC2(CCN(c3nc(N)c(-c4ccc(F)cc4F)c(=O)n3C)CC2)[C@@H]1N [Example 156] | 48 |
| CCOc1nccc(Sc2c(N)nc(N3CCC4(CC3)CO[C@@H](C)[C@H]4N)n(C)c2=O)c1Cl [Example 30] | 32 |
| Cn1c(N2CCC3(CCC[C@H]3N)CC2)nc(N)c(Sc2cccc(Cl)c2Cl)c1=O [Example 13] | 39 |
| COc1ccc(-c2c(N)nc(N3CCC4(CC3)CO[C@@H](C)[C@H]4N)n(C)c2=O)cc1C [Example 173] | 175 |
| Cc1ncccc1-c1c(N)nc(N2CCC3(CC2)CO[C@@H](C)[C@H]3N)n(C)c1=O [Example 183] | 1590 |
| Cn1c(N2CCC3(CC2)COC[C@H]3N)nc(N)c(-c2ccccc2)c1=O [Example 189] | 41 |
| C[C@@H]1OCC2(CCN(c3nc(N)c(Sc4ccnc(N5CCCC5)c4Cl)c(=O)n3C)CC2)[C@@H]1N [Example 28] | 28 |
| C[C@@H]1OCC2(CCN(c3ncc(Sc4cc(N)nc(Cl)c4Cl)c(=O)n3C)CC2)[C@@H]1N [Example 112] | 19 |
| C[C@H]1C[C@@H](N)C2(CCN(c3ncc(Sc4cccnc4C(F)(F)F)c(=O)n3C)CC2)C1 [Example 114] | 50 |
| C[C@@H]1OCC2(CCN(c3nc(N)c(Sc4cccc5c4OCO5)c(=O)n3C)CC2)[C@@H]1N [Example 78] | 12 |
| Cn1c(N2CCC3(CCC[C@H]3N)CC2)nc(N)c(Sc2cccnc2C(F)(F)F)c1=O [Example 14] | 98 |
| C[C@@H]1OCC2(CCN(c3nc(N)c(-c4ccc(C5CCCCC5)cc4)c(=O)n3C)CC2)[C@@H]1N [Example 163] | 73 |
| C[C@@H]1OCC2(CCN(c3nc(N)c(-c4cccc(Cl)c4Cl)c(=O)n3C)CC2)[C@@H]1N [Example 132] | 16 |
| CC[C@@H]1OCC2(CCN(c3nc(N)c(-c4ccccc4)c(=O)n3C)CC2)[C@@H]1N [Example 144] | 34 |
| Cn1c(N2CCC3(CC2)C[C@H](F)C[C@H]3N)nc(N)c(-c2cccc(Cl)c2Cl)c1=O [Example 155] | 48 |
| C[C@@H]1OCC2(CCN(c3nc(N)c(Sc4ccc(F)cc4Cl)c(=O)n3C)CC2)[C@@H]1N [Example 81] | 15 |
| CC1(CN)CCN(c2ncc(Sc3cccc(Cl)c3Cl)c(=O)[nH]2)CC1 [Example 93] | 65 |
